Experimental findings from US12630600B2 (MEDIMMUNE LIMITED, priority 2022, dated 2026) are described below.

Where two headings read alike, the source gives them in different places. Starred links: 1 amine or outer side, 2 acyl side, 3 side chain; linkers in the order of their positions; H or OH if unused. Non-standard residues stand in square brackets, D forms with d. Residues, ends and D or L forms follow the SMILES beside them. Groups on a side chain read outwards from the residue. *: point of attachment. C20 diacid = O=C(O)CCCCCCCCCCCCCCCCCCC(=O)*; C18 diacid = O=C(O)CCCCCCCCCCCCCCCCC(=O)*; Dip = N[C@H](C(=O)O)C(c1ccccc1)c1ccccc1; γGlu = O=C(O)[C@H](CCC(=O)[*:2])N[*:1]; Palmitoyl = CCCCCCCCCCCCCCCC(=O)*; αMeF = C[C@](N)(Cc1ccccc1)C(=O)O; PEG2 = NCCOCCOCCC(=O)O; AEEA = NCCOCCOCC(=O)O; Aib = CC(C)(N)C(=O)O

In assay [1] the target is T1, human GLP-1 receptor (hGLP-1R) (Homo sapiens, UniProt P43220).
T1 construct: expressed in transfected cells; host or cells: CHO
T1 sequence (P43220 24-463): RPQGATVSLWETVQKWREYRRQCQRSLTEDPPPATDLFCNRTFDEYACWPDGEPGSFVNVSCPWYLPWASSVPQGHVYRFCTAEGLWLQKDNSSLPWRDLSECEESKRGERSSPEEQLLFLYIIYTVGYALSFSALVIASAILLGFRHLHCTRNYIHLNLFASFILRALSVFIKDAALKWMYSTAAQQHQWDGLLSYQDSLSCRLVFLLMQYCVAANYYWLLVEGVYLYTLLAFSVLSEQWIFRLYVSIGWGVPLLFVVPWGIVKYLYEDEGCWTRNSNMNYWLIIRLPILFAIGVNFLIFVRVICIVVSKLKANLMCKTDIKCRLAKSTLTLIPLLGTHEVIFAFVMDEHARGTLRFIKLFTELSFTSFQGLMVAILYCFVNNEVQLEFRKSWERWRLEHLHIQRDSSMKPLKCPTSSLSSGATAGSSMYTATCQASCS
The experiment in a line: cAMP production (HTRF) in CHO cells expressing human GLP-1 receptor. Particulars: for EC50: cAMP, geometric mean; for % Relative Potency Ratio: % GLP-1R activity relative to GLP-1 / % GlucR activity relative to glucagon. The class given is cell-based. For orientation: Cyclic AMP is a second messenger, typically raised through Gs and lowered through Gi signalling.

The target of assay [2] is T2, human glucagon receptor (hGCGR) (Homo sapiens, UniProt P47871).
T2 construct: expressed in transfected cells; host or cells: CHO
T2 sequence (P47871 26-477): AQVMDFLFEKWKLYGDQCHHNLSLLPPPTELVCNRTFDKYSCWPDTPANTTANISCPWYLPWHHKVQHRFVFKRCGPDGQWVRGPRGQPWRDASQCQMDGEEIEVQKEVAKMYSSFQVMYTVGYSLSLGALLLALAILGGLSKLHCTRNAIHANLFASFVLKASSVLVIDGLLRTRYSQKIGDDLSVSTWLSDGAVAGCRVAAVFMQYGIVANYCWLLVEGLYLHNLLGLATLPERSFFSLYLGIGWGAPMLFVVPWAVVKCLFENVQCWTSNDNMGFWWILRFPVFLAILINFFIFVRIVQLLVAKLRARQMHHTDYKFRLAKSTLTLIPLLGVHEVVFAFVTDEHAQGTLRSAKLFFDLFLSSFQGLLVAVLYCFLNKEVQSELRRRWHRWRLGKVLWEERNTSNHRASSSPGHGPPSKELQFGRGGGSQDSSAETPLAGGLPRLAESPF
Kind of assay: cAMP production (HTRF) in CHO cells expressing human glucagon receptor. The class given is cell-based. On the procedure: Cells were re-suspended in assay buffer at a batch-dependent optimized concentration (typically hGLP-1R cells at 1×10^5 cells/mL, hGCGR cells at 2×10^5 cells/mL).
Cells were added to the assay plate using a multidrop dispenser and incubated at room temperature for 30 minutes before measuring the cAMP level using a cAMP dynamic 2 homogeneous time resolved Fluorescence (HTRF) kit (Cisbio Bioassays #62AM4PEJ) following the two-step protocol as per manufacturer's recommendations. In brief, anti-cAMP cryptate (donor fluorophore) and cAMP-d2 (acceptor fluorophore) were made up separately by diluting each 1 in 20 in conjugate and lysis buffer provided in the kit. Anti-cAMP cryptate was added to all wells of the assay plate, followed by cAMP-d2 added to all wells except non-specific binding (NSB) wells (to which conjugate and lysis buffer was added).
Data was transformed to % Delta F as described in the manufacturer's guidelines and analyzed by 4-parameter logistic fit to determine EC50 values.

The mark [3] stands for this setting: Table 7, modification at position 20, CHO cells expressing hGLP-1R, read-out: hGLP-1R EC50.
[4] abbreviates: Table 7, modification at position 20, CHO cells expressing hGCGR, geometric mean, read-out: hGluc-R EC50.
Setting [5] is: Table 10, peptides modified at position 13, geometric mean, CHO cells, read-out: hGluc-R EC50.
Setting [6] is: Table 6, modification at position 17, CHO cells expressing hGLP-1R, read-out: hGLP-1R EC50.
Where [7] appears, read: Table 6, modification at position 17, CHO cells expressing hGCGR, geometric mean, read-out: hGluc-R EC50.

As to `CC[C@H](C)[C@H](NC(=O)[C@H](Cc1c[nH]c2ccccc12)NC(=O)[C@H](CCC(N)=O)NC(=O)[C@@H](NC(=O)[C@H](Cc1ccccc1)NC(=O)[C@H](CC(=O)O)NC(=O)[C@H](CCCCNC(=O)COCCOCCNC(=O)COCCOCCNC(=O)CC[C@H](NC(=O)CCCCCCCCCCCCCCCCC(=O)O)C(=O)O)NC(=O)[C@H](C)NC(=O)[C@H](C)NC(=O)[C@H](CCCNC(=N)N)NC(=O)[C@H](CO)NC(=O)[C@H](CC(=O)O)NC(=O)[C@H](CC(C)C)NC(=O)[C@](C)(Cc1ccccc1)NC(=O)[C@H](CCCCN)NC(=O)[C@H](CO)NC(=O)[C@@H](NC(=O)[C@H](CC(=O)O)NC(=O)[C@H](CO)NC(=O)[C@@H](NC(=O)[C@](C)(Cc1ccccc1)NC(=O)[C@@H](NC(=O)CNC(=O)[C@H](CCC(N)=O)NC(=O)C(C)(C)NC(=O)[C@@H](N)Cc1c[nH]cn1)[C@@H](C)O)[C@@H](C)O)C(C)C)C(C)C)C(=O)N[C@@H](C)C(=O)N[C@@H](CC(N)=O)C(=O)N[C@H](C(N)=O)[C@@H](C)O` [Peptide 204] (H-H[Aib]QGT[αMeF]TSDVSK[αMeF]LDSRAAK([AEEA-AEEA-γGlu-C18 diacid])DFVQWIANT-NH2; N-terminus assumed), the EC50 (as a rule, the concentration that produces a half-maximal response) in assay [1] (setting [3]) was 43.3 pM; in assay [2] (setting [4]), 595 pM. Further, the “% Relative Potency Ratio” value in assay [1] (Table 7) is 27.2.
Turning to `CCCCCCCCCCCCCCCC(=O)N[C@@H](CCC(=O)NCCOCCOCCC(=O)NCCOCCOCCC(=O)NCCCC[C@H](NC(=O)[C@H](CCCCN)NC(=O)[C@H](CO)NC(=O)[C@@H](NC(=O)[C@H](CC(=O)O)NC(=O)[C@H](CO)NC(=O)[C@@H](NC(=O)[C@](C)(Cc1ccccc1)NC(=O)[C@H](CO)NC(=O)CNC(=O)[C@H](CCC(N)=O)NC(=O)C(C)(C)NC(=O)[C@@H](N)Cc1c[nH]cn1)[C@@H](C)O)C(C)C)C(=O)N[C@@H](CC(C)C)C(=O)N[C@@H](CC(=O)O)C(=O)N[C@@H](CO)C(=O)N[C@@H](CCCNC(=N)N)C(=O)N[C@@H](C)C(=O)N[C@@H](C)C(=O)N[C@@H](CCC(N)=O)C(=O)N[C@@H](CC(=O)O)C(=O)N[C@@](C)(Cc1ccccc1)C(=O)N[C@H](C(=O)N[C@@H](CCC(=O)O)C(=O)N[C@@H](Cc1c[nH]c2ccccc12)C(=O)N[C@H](C(=O)N[C@@H](C)C(=O)N[C@@H](CC(N)=O)C(=O)N[C@H](C(N)=O)[C@@H](C)O)[C@@H](C)CC)C(C)C)C(=O)O` [Peptide 401] (H-H[Aib]QGS[αMeF]TSDVSKK([PEG2-PEG2-γGlu-Palmitoyl])LDSRAAQD[αMeF]VEWIANT-NH2), the “% Relative Potency Ratio” value in assay [1] (Table 10) turned out to be 32.3. Moreover, the concentration giving a half-maximal response (EC50) in assay [2] (setting [5]) came to 9.54 pM.
For the compound `CC[C@H](C)[C@H](NC(=O)[C@H](Cc1c[nH]c2ccccc12)NC(=O)[C@H](CCCCNC(=O)CC[C@H](NC(=O)CCCCCCCCCCCCCCCCC(=O)O)C(=O)O)NC(=O)[C@@H](NC(=O)[C@H](Cc1ccccc1)NC(=O)[C@H](CC(=O)O)NC(=O)[C@H](CCC(N)=O)NC(=O)[C@H](C)NC(=O)[C@H](C)NC(=O)[C@H](CCCNC(=N)N)NC(=O)[C@H](CO)NC(=O)[C@H](CC(=O)O)NC(=O)[C@H](CC(C)C)NC(=O)[C@@H](NC(=O)[C@H](CCCCN)NC(=O)[C@H](CO)NC(=O)[C@@H](NC(=O)[C@H](CC(=O)O)NC(=O)[C@H](CO)NC(=O)[C@@H](NC(=O)[C@H](Cc1ccccc1)NC(=O)[C@H](CO)NC(=O)CNC(=O)[C@H](CCC(N)=O)NC(=O)C(C)(C)NC(=O)[C@@H](N)Cc1c[nH]cn1)[C@@H](C)O)C(C)C)C(c1ccccc1)c1ccccc1)C(C)C)C(=O)N[C@@H](C)C(=O)N[C@@H](CC(N)=O)C(=O)N[C@H](C(N)=O)[C@@H](C)O` [Peptide 343] (H-H[Aib]QGSFTSDVSK[Dip]LDSRAAQDFVK([γGlu-C18 diacid])WIANT-NH2), the half-maximal effective concentration (EC50) in assay [1] (setting [3]) is 198 pM; in assay [2] (setting [4]), 19600 pM. Moreover, the “% Relative Potency Ratio” value in assay [1] (Table 7) was determined as 196.1; in assay [1] (Table 8), 4.2.
With `CC(C)C[C@H](NC(=O)[C@H](Cc1c[nH]c2ccccc12)NC(=O)[C@H](CCCNC(=N)N)NC(=O)[C@@H](NC(=O)[C@H](Cc1ccccc1)NC(=O)[C@H](CC(=O)O)NC(=O)[C@H](CCC(N)=O)NC(=O)[C@H](C)NC(=O)[C@H](CCCNC(=N)N)NC(=O)[C@H](CCCCNC(=O)COCCOCCNC(=O)COCCOCCNC(=O)CC[C@H](NC(=O)CCCCCCCCCCCCCCCCCCC(=O)O)C(=O)O)NC(=O)[C@@H](NC(=O)[C@H](CC(=O)O)NC(=O)[C@H](CC(C)C)NC(=O)[C@](C)(Cc1ccccc1)NC(=O)[C@H](CCCCN)NC(=O)[C@H](CO)NC(=O)[C@@H](NC(=O)[C@H](CC(=O)O)NC(=O)[C@H](CO)NC(=O)[C@@H](NC(=O)[C@H](Cc1ccccc1)NC(=O)[C@@H](NC(=O)CNC(=O)[C@H](CCC(N)=O)NC(=O)C(C)(C)NC(=O)[C@@H](N)Cc1c[nH]cn1)[C@@H](C)O)[C@@H](C)O)C(C)C)[C@@H](C)O)C(C)C)C(=O)N[C@@H](CCC(=O)O)C(=O)N[C@@H](C)C(=O)NC(C)(C)C(=O)NCC(=O)O` [Peptide 407], the EC50 is 209 pM in assay [1] (setting [6]) and 462 pM in assay [2] (setting [7]).
On to `CC[C@H](C)[C@H](NC(=O)C(C)(C)NC(=O)[C@H](CCC(N)=O)NC(=O)[C@@H](NC(=O)[C@](C)(Cc1ccccc1)NC(=O)[C@H](CC(=O)O)NC(=O)[C@H](CCC(N)=O)NC(=O)[C@H](C)NC(=O)[C@H](C)NC(=O)[C@H](CCCNC(=N)N)NC(=O)[C@H](CO)NC(=O)[C@H](CC(=O)O)NC(=O)[C@H](CC(C)C)NC(=O)[C@H](CCCCNC(=O)COCCOCCNC(=O)COCCOCCNC(=O)CC[C@H](NC(=O)CC[C@H](NC(=O)CCCCCCCCCCCCCCCCCCC(=O)O)C(=O)O)C(=O)O)NC(=O)[C@H](CCCCN)NC(=O)[C@H](CO)NC(=O)[C@@H](NC(=O)[C@H](CC(=O)O)NC(=O)[C@H](CO)NC(=O)[C@@H](NC(=O)[C@](C)(Cc1ccccc1)NC(=O)[C@H](CO)NC(=O)CNC(=O)[C@H](Cc1c[nH]cn1)NC(=O)C(C)(C)NC(=O)[C@@H](N)Cc1c[nH]cn1)[C@@H](C)O)C(C)C)C(C)C)C(=O)N[C@@H](C)C(=O)N[C@@H](CC(N)=O)C(=O)N[C@H](C(N)=O)[C@@H](C)O` [Peptide 405] (H-H[Aib]HGS[αMeF]TSDVSKK([AEEA-AEEA-γGlu-γGlu-C20 diacid])LDSRAAQD[αMeF]VQ[Aib]IANT-NH2), for which the EC50 came out at 1040 pM in assay [1] (Table 10, peptides modified at position 13, CHO cells, read-out: hGLP-1R EC50) and 8590 pM in assay [2] (setting [5]). Besides, in assay [1] (Table 10), the “% Relative Potency Ratio” value was found to be 16.3.
For `CC[C@H](C)[C@H](NC(=O)[C@@H](NC(=O)C(C)(C)NC(=O)[C@H](CCC(=O)O)NC(=O)[C@@H](NC(=O)[C@](C)(Cc1ccccc1)NC(=O)[C@H](CC(=O)O)NC(=O)[C@H](CCC(N)=O)NC(=O)[C@H](C)NC(=O)[C@H](C)NC(=O)[C@H](CCCCNC(=O)CCOCCOCCNC(=O)CCOCCOCCNC(=O)CC[C@H](NC(=O)CC[C@H](NC(=O)CCCCCCCCCCCCCCCCC(=O)O)C(=O)O)C(=O)O)NC(=O)[C@H](CO)NC(=O)[C@H](CC(=O)O)NC(=O)[C@H](CC(C)C)NC(=O)[C@@H](NC(=O)[C@H](CCCCN)NC(=O)[C@H](CO)NC(=O)[C@@H](NC(=O)[C@H](CC(=O)O)NC(=O)[C@H](CO)NC(=O)[C@@H](NC(=O)[C@](C)(Cc1ccccc1)NC(=O)[C@H](CO)NC(=O)CNC(=O)[C@H](CCC(N)=O)NC(=O)[C@H](CO)NC(=O)[C@@H](N)Cc1c[nH]cn1)[C@@H](C)O)C(C)C)C(c1ccccc1)c1ccccc1)C(C)C)[C@@H](C)CC)C(=O)N[C@@H](CC(N)=O)C(=O)N[C@H](C(N)=O)[C@@H](C)O` [Peptide 65] (H-HSQGS[αMeF]TSDVSK[Dip]LDSK([PEG2-PEG2-γGlu-γGlu-C18 diacid])AAQD[αMeF]VE[Aib]IINT-NH2), the values for the 50% effective concentration (EC50) in assay [1] (setting [6]) and in assay [2] (setting [7]) were 1230 pM and 2060 pM, respectively. In assay [1] (Table 6), the “% Relative Potency Ratio” value came to 3.3.
Take `CC[C@H](C)[C@H](NC(=O)[C@H](Cc1c[nH]c2ccccc12)NC(=O)[C@H](CCCCNC(=O)CC[C@H](NC(=O)CCCCCCCCCCCCCCCCC(=O)O)C(=O)O)NC(=O)[C@@H](NC(=O)[C@H](Cc1ccccc1)NC(=O)[C@H](CC(=O)O)NC(=O)[C@H](CCC(N)=O)NC(=O)[C@H](C)NC(=O)[C@H](C)NC(=O)[C@H](CCC(N)=O)NC(=O)[C@H](CO)NC(=O)[C@H](CC(=O)O)NC(=O)[C@H](CC(C)C)NC(=O)[C@](C)(Cc1ccccc1)NC(=O)[C@H](CCCCN)NC(=O)[C@H](CO)NC(=O)[C@@H](NC(=O)[C@H](CC(=O)O)NC(=O)[C@H](CO)NC(=O)[C@@H](NC(=O)[C@H](Cc1ccccc1)NC(=O)[C@@H](NC(=O)CNC(=O)[C@H](Cc1c[nH]cn1)NC(=O)C(C)(C)NC(=O)[C@@H](N)Cc1c[nH]cn1)[C@@H](C)O)[C@@H](C)O)C(C)C)C(C)C)C(=O)N[C@@H](C)C(=O)N[C@@H](CC(N)=O)C(=O)N[C@H](C(N)=O)[C@@H](C)O` [Peptide 346]: the “% Relative Potency Ratio” value in assay [1] (Table 8) stood at 0.1. Moreover, the EC50 in assay [1] (hGLP-1R EC50 (pM), Table 8, peptides modified at position 24, CHO cells) worked out at 7320 pM; in assay [2] (hGluc-R EC50 (pM), Table 8, peptides modified at position 24, geometric mean, CHO cells), 203 pM.
